Like-named read-outs stand apart in the source and are kept apart here.
Legend:
[1] = system: HepG2 cells; assay: Drug/cytokine-induced cytotoxicity (% LDH release) concentration-response in HepG2 cells; assay type: cell-based, human; parameters: key to Deltadiff: LDH release percentage points (drug/TNF Delta minus drug/VEH Delta); details: for R10 IFN: with IFN; for R10 TNF: with TNF; for R10 TNF/IFN / EC10 TNF/IFN: with TNF and IFN; for Deltadiff: Delta of drug/TNF curve minus Delta of drug/VEH curve (LDH percentage); for cytotoxic interaction of drug with TNF: TNF 10 ng/ml; for cytotoxicity of drug on its own (LDH release): absence of cytokines; for Emax: Homo sapiens; for TNF change: D10TNF − D10VEH; for EC10 TNF: with TNF 10 ng/ml
Experimental: Cells were passed or used for experiments when they reached approximately 80% confluence. Cells were used at passage 6-16.
HepG2 cells were plated at a density of 4×10^4 cells per well in black-walled, 96-well, tissue culture plates and were allowed to attach overnight before being treated with compounds. Drugs were reconstituted in vehicles consisting of sterile water or DMSO (concentration less than 0.5%). Cells were treated with various concentrations of the drug or its vehicle (control) alone or in combination with the cytokines TNF (10 ng/ml) and/or IFN (10 ng/ml) or their PBS vehicle (VEH). Cytotoxicity was evaluated as lactate dehydrogenase (LDH) activity released from the cells into culture medium using the Homogeneous Membrane Integrity Assay kit from Promega (Madison, Wis.).
Concentration-response curves were generated for 24 drugs, 14 of which are associated with human IDILI and 10 of which are not. […] This was necessary because four-parameter logistic modeling used in the statistical analysis requires well defined, sigmoidal concentration-response curves. Cells were exposed to drug/cytokine combinations for 24 hours. For analysis of drug concentration-response data, concentrations of each drug were expressed as a fraction of its Cmax.
Defining covariates: four-parameter logistic model. In the first phase, variables (potential covariates) for use in the classification analysis were defined from the analysis of drug concentration-response data. Initially, a one-way analysis of variance (ANOVA) was used as an omnibus test to determine if a particular treatment (e.g. drug alone or in combination with TNF and/or IFN) caused a significant change in LDH release relative to baseline (i.e., LDH release in the absence of drug, hereafter designated “min”). The criterion for significance for the ANOVA was set at α=0.01. A 1% level of significance was used to rule out more vigorously marginal relationships between concentration and response.
where LDH(x) is the percentage of LDH released at a given concentration x; x=[drug]/Cmax; min=the % LDH release at 0 drug concentration (i.e., baseline); and max=the maximal LDH response (i.e., maximum % LDH release).
where D10 is a categorical variable related to reaching a threshold LDH response above which a drug is classified as positively associated with IDILI. D10 is defined as 0 if Delta<10% LDH release and as 1 if Delta≥10% LDH release.
The base covariate R10 represents the [drug]/Cmax value associated with an increase in 10 LDH percentage points above min for a particular treatment condition and was determined by the equation:
R10 was considered to be 0 when the Delta<10% LDH (i.e. when D10=0).
EC50 quotient, EC10 quotient and R10 quotient represent the ratio between the EC50, EC10 or R10 of the drug/cytokine concentration-response curve and the respective value for the drug/VEH concentration-response curve. In some instances, the value derived from this calculation is indeterminate (i.e. when the denominator=0). In order to incorporate the quotient values into the classification models described below, the categorical variable “Q” was used to eliminate the possibility of the quotient being indeterminate. Q is defined as 0 if Delta VEH and/or Delta cytokine is <10% LDH and 1 if both Delta VEH and Delta cytokine are ≥10% LDH. […] The same condition was applied for calculation of EC10 quotient and R10 quotient.
Deltadiff represents the difference between the Delta of the drug/cytokine concentration-response curve and the Delta of the drug/VEH curve. In other words, Deltadiff=(Delta cytokine)−(Delta VEH). FIG. 1 graphically illustrates several of the covariates defined above. […] In addition to the covariates derived from the concentration-response curves, the maximal therapeutic plasma drug concentration (Cmax) in human patients was used in some models (Table 1).

[2] = Logistic regression classification model: probability that a drug is associated with IDILI; parameters: species or system human; details: for Estimated probability: probability that drug is associated with IDILI, covariates Deltadiff, EC50 VEH, EC50 TNF, Delta VEH, Cmax, optimal cutoff 0.46
From the text: Classification modeling using defined covariates. In the second phase of analysis, classification models were developed using logistic regression with covariates as independent variables in the analysis and known IDILI classification as the dependent variable. A model selection process was used to determine if a covariate or set of covariates is associated with IDILI liability. Covariates were first evaluated individually to determine how well a particular covariate classified drugs according to IDILI liability, and then covariates were evaluated in combination. Combinations of covariates were selected to maximize the ability of the model to distinguish between drugs associated or not with IDILI. Specifically, covariates that describe changes in efficacy (Delta, Deltadiff, etc.) were paired with covariates that describe changes in potency (EC50, EC10, R10, etc.) to find covariate combinations that led to models that most accurately discriminated between drugs that are and are not associated with IDILI. […] The logistic regression models follow the equation: […]
where ŷi is the calculated (predicted) probability that drug i with a vector of covariates xi is associated with IDILI. The β coefficients (β0, the regression intercept; and βi, the regression slopes for model covariates, xi) were derived from the logistic regression models using 1) combinations of the covariates (xi) generated by concentration-response modeling for each of the 24 drugs evaluated in this study, and 2) the true IDILI classification for the dependent variable yi (i.e., 1 for IDILI+drugs and 0 for IDILI-drugs). […] This occurs when a covariate almost perfectly separates observations into the appropriate categories. […] When separation or quasi-complete separation occurs, use of the standard method (i.e., maximum likelihood estimation) provides biased, unreliable estimates of βi.
Receiver operating characteristic (ROC) analysis. In the third phase of the statistical approach, the classification models, generated as logistic regression models using single covariates or combinations of covariates, were evaluated by ROC analysis to determine which model and corresponding sets of covariates led to the most accurate classification of drugs according to their potential to cause IDILI. An ROC curve was created for each model by graphing the true positive rate (sensitivity; i.e., proportion of drugs correctly classified as associated with IDILI) against the false positive rate (1-specificity; i.e., proportion of drugs incorrectly classified as associated with IDILI) at various probability cutoff thresholds (k). […] An area under the curve (AUC) and confidence interval was computed for each ROC curve (where each logistic regression model has one ROC curve). […] Corresponding to each ROC curve is an optimal threshold value (k*), the threshold yielding the highest point of accuracy on the curve (i.e., the point nearest the point […] on the curve). Thus, each ROC curve has a corresponding AUC and an optimal cutoff (k*) that corresponds to the highest point of accuracy on that ROC curve.

[3] = cited from earlier work
[4] = cited from earlier work; for True classification: IDILI in human patients; for IDILI liability: criteria of Xu et al. (2008)
[5] = 10 percent increase in LDH response above min, 0 when D10 = 0, drug alone (VEH)
[6] = 10 percent increase in LDH response above min, 0 when D10 = 0
[7] = HepG2, categorical, Delta threshold 10 LDH percentage points, drug alone (VEH), read-out: D10
[8] = HepG2, maximal LDH response, drug alone (VEH), 24 h, read-out: max
[9] = value corresponding to 10% of Delta, NA = no significant increase
[10] = maximal plasma concentration after pharmacologic dosing in human patients

## Nc1c(CC(=O)O)cccc1C(=O)c1ccc(Br)cc1 [Bromfenac]
[1]; [5]
  R10: 0 [drug]/Cmax
[1]; [6]
  R10 IFN: 0 [drug]/Cmax
  R10 TNF: 40.6 [drug]/Cmax
  R10 TNF/IFN: 28.9 [drug]/Cmax
[1]
  Deltadiff: 22.6
[1]; HepG2, 24 h
  cytotoxic interaction of drug with TNF: synergized with TNF to cause cytotoxicity
  cytotoxicity of drug on its own (LDH release): caused no cytotoxicity on their own
[1]; HepG2, 24 h, TNF and IFN 10 ng/ml each
  effect of IFN coexposure on the drug/TNF cytotoxic interaction: coexposure to IFN enhanced the cytotoxic interaction
[1]; [7]
  Emax: < 10%
[1]; [8]
  Emax: 13.8%
[1]; categorical
  TNF change: 1
[1]; [9]
  EC10 TNF: 22.6 [drug]/Cmax
  EC10 TNF/IFN: 18.9 [drug]/Cmax
[2]
  Estimated probability: 0.9397
[3]; [10]
  Cmax: 13.5 µM
[4]
  True classification: IDILI+
  IDILI liability: IDILI+

## CN[C@H]1CC[C@@H](c2ccc(Cl)c(Cl)c2)c2ccccc21 [Sertraline]
[1]; [5]
  R10: 0 [drug]/Cmax
[1]; [6]
  R10 IFN: 0 [drug]/Cmax
  R10 TNF: 0 [drug]/Cmax
  R10 TNF/IFN: 0 [drug]/Cmax
[1]
  Deltadiff: 0
[1]; [7]
  Emax: < 10%
[1]; [8]
  Emax: 14%
[1]; categorical
  TNF change: 0
[2]
  Estimated probability: 0.1275
[3]; [10]
  Cmax: 0.06 µM
[4]
  True classification: IDILI−
  IDILI liability: IDILI−

## CC(CN1c2ccccc2Sc2ccccc21)N(C)C (stereo not shown) [Promethazine]
[1]; [5]
  R10: 0 [drug]/Cmax
[1]; [6]
  R10 IFN: 0 [drug]/Cmax
  R10 TNF: 0 [drug]/Cmax
  R10 TNF/IFN: 0 [drug]/Cmax
[1]
  Deltadiff: 0
[1]; [7]
  Emax: < 10%
[1]; [8]
  Emax: 17%
[1]; categorical
  TNF change: 0
[2]
  Estimated probability: 0.1275
[3]; [10]
  Cmax: 0.06 µM
[4]
  True classification: IDILI−
  IDILI liability: IDILI−

## CC(=O)Oc1ccccc1C(=O)O [Aspirin]
[1]; [5]
  R10: 0 [drug]/Cmax
[1]; [6]
  R10 IFN: 0 [drug]/Cmax
  R10 TNF: 0 [drug]/Cmax
  R10 TNF/IFN: 0 [drug]/Cmax
[1]
  Deltadiff: 0
[1]; [7]
  Emax: < 10%
[1]; [8]
  Emax: 11%
[1]; categorical
  TNF change: 0
[2]
  Estimated probability: 0.1445
[3]; [10]
  Cmax: 47 µM
[4]
  True classification: IDILI−
  IDILI liability: IDILI−

## CC(=O)[C@]1(O)Cc2c(O)c3c(c(O)c2[C@@H](O[C@H]2C[C@H](N)[C@H](O)[C@H](C)O2)C1)C(=O)c1ccccc1C3=O [Idarubicin]
[1]; [5]
  R10: 0 [drug]/Cmax
[1]; [6]
  R10 IFN: 0 [drug]/Cmax
  R10 TNF: 0 [drug]/Cmax
  R10 TNF/IFN: 0 [drug]/Cmax
[1]
  Deltadiff: 0
[1]; [7]
  Emax: < 10%
[1]; [8]
  Emax: 13.9%
[1]; categorical
  TNF change: 0
[2]
  Estimated probability: 0.1275
[3]; [10]
  Cmax: 0.02 µM
[4]
  True classification: IDILI−
  IDILI liability: IDILI−

## CS(=O)(=O)Nc1ccc([N+](=O)[O-])cc1Oc1ccccc1 [Nimesulide]
[1]
  R10: 0 [drug]/Cmax
  Deltadiff: 92.3
[1]; [6]
  R10 IFN: 0 [drug]/Cmax
  R10 TNF: 32.0 [drug]/Cmax
  R10 TNF/IFN: 33.5 [drug]/Cmax
[1]; HepG2, 24 h
  cytotoxic interaction of drug with TNF: synergized with TNF to cause cytotoxicity
  cytotoxicity of drug on its own (LDH release): caused no cytotoxicity on their own
[1]; HepG2, read-out: D10
  Emax: < 10%
[1]; [8]
  Emax: 14.6%
[1]; categorical
  TNF change: 1
[1]; [9]
  EC10 TNF: 31.8 [drug]/Cmax
  EC10 TNF/IFN: 33.2 [drug]/Cmax
[2]
  Estimated probability: 1
[3]; [10]
  Cmax: 21.1 µM

## CC(C)(O)C(=O)Nc1ccc([N+](=O)[O-])c(C(F)(F)F)c1 [2-hydroxyflutamide]
[2]; best-performing classification model
  calculated probability for association with IDILI: 0.999
[3]; metabolite of flutamide in vivo
  Cmax: 5.74 µM

## COc1ccc2cc([C@H](C)C(=O)O)ccc2c1 [Naproxen]
[1]; [5]
  R10: 60.5 [drug]/Cmax
[1]; [6]
  R10 IFN: 65.9 [drug]/Cmax
  R10 TNF: 24.3 [drug]/Cmax
  R10 TNF/IFN: 18.4 [drug]/Cmax
[1]
  Deltadiff: −9.3
[1]; [7]
  Emax: > 10%
[1]; [8]
  Emax: 102%
[1]; value corresponding to 10% of Delta (max-min), drug alone (VEH), NA = no significant increase
  EC10: 59.8 [drug]/Cmax
[1]; value corresponding to 10% of Delta, with IFN 10 ng/ml, NA = no significant increase
  EC10 IFN: 64.8 [drug]/Cmax
[1]; [9]
  EC10 TNF: 23.6 [drug]/Cmax
  EC10 TNF/IFN: 17.3 [drug]/Cmax
[2]
  Estimated probability: 0.8589
[4]
  True classification: IDILI+

Reference: patent publication US20200003760A1, “IN-VITRO METHODS FOR CLASSIFYING DRUGS ACCORDING TO THEIR POTENTIAL TO CAUSE LIVER CELL INJURY” (Board of Trustees of Michigan State University, priority 2018, published 2020)
